Reference: BindingDB's records for patent US20240000767 (Bayer Aktiengesellschaft, 2024)
pIC50: −log10 of the molar value.

Target: T1, Alpha-2C adrenergic receptor (Homo sapiens, UniProt P18825)
T1 sequence (P18825 whole entry): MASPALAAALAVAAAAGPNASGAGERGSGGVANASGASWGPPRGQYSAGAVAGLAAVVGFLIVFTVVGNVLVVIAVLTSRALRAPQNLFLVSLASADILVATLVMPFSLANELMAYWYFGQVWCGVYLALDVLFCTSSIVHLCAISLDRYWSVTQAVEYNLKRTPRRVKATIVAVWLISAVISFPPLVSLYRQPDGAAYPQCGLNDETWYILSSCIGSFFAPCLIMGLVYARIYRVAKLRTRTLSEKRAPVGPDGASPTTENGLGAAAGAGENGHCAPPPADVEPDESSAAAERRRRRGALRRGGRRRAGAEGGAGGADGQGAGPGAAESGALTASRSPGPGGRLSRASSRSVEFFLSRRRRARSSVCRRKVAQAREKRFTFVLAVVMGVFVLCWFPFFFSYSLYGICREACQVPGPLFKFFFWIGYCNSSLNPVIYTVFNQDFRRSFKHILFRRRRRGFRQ
Test: In Vitro Radioligand Binding Assay
Experimental: In Vitro Radioligand Binding Studies for Determination of the Dissociation Constants K1 at the Human Adrenoreceptor ADRA2C (Eurofins Panlabs Discovery Services, Taiwan, Ltd)A competition assay based on [3H] rauwolscine as radioliganden was used to determine the binding affinity of the test substances at the human ADRA2C receptor.To configure the competition assay, the equilibrium dissociation constant Kd of the radioligand [3H] rauwolscine was determined in a saturation experiment. To this end, homogenates of CHO-K1 cells recombinantly expressing the human ADRA2C receptor were incubated with increasing concentrations of the radiotracers for 1 h at 4° C. in binding buffer (50 mM Tris-HCl, 1 mM EDTA, pH 7.4). Unspecific binding was determined by addition of an excess of the not radioactively labelled ligand prazosin (10 μM). The radioactivity was determined in a scintiation counter.The competition experiments were carried out in the presence of 0.5 nM [3H] rauwolscine and increasing concentrations of the test substances to be characterized under the conditions described above.

SMILES	pIC50
C[C@@H]1CCCN(C2CCN(c3nc(Br)c(C(=O)NCc4ncc(F)cc4F)s3)CC2)C1 [US20240000767, Example 119]	7.52
C[C@@H]1CCCN(C2CCN(c3ncc(C(=O)NCc4cc(C(F)(F)F)ccn4)s3)CC2)C1 [US20240000767, Example 18]	5.17
